From patent EP1500700B1, “Use of a pectic acid lyase in a detergent” (KAO CORPORATION, priority 1997, dated 1998)

Tests used:
[1] = tested on: pectic acid lyases from Example 3 and Example 8; assay type: biochemical, Bacillus sp. KSM-P15; conditions: pH 7.5
[2] = tested on: wild-type and reconbinant enzyme; test: Effect of the arginine-modifier 2,3-butanedione on residual activity; assay type: biochemical, Bacillus sp. KSM-P15; conditions: 0.1 M borate buffer pH 9.5, 30°C, 30 minutes; both enzymes
[3] = tested on: pectic acid lyase from Bacillus sp. KSM-P15, wild type (BPAL, Example 3), Sequence No. 1; test: Effect of H2O2 on residual pectic acid lyase activity; assay type: biochemical; conditions: in the presence of 3% H2O2; 50 mM Tris-HCl buffer (pH 7.5), 30°C, 30 minutes
Experimental: (§1) 0.5 M glycine-NaOH buffer (pH 10.5) (0.3 ml), 6 mM calcium chloride (0.3 ml), and deionized water (1.7 ml) were placed in a test tube, which was then incubated at 30°C for 5 minutes. An appropriately diluted enzyme solution [0.1 ml, diluted with 50 mM Tris-HCl buffer containing 1 mM calcium chloride (pH 7.5)] was added to the test tube, which was further incubated at constant temperature for 5 minutes. An aqueous solution of polygalacturonic acid (0.6 ml, 1% (w/v), product of ICN Biomedicals Co., Lot 14482, pH 6.8 adjusted with sodium hydroxide solution) was added to the enzyme solution to initiate reaction, and the mixture was incubated at 30°C for 10 minutes. The reaction was terminated by the addition of 3 ml of 50 mM HCl. The quantity of unsaturated Oligogalacturonic acid formed in the reaction was determined through measuring the absorbance at 235 nm and calculating with the molar extinction coefficient of unsaturated digalacturonide (4600 M^-1 cm^-1, Hasegawa & Nagel, J. Food Sci., 31, 838-845, 1966). A test blank was prepared as follows: 50 mM hydrochloric acid (3 ml) was added to a reaction mixture treated without being incorporated with the enzyme solution, and subsequently an enzyme solution (0.1 ml) was added thereto. […]

[4] = tested on: recombinant pectic acid lyase of Bacillus sp. KSM-P15 (rPAL, Example 8), Sequence No. 1; test: as above; assay type: biochemical; conditions: in the presence of 3% H2O2; 50 mM Tris-HCl buffer (pH 7.5), 30°C, 30 minutes
Experimental: as §1

Row | Compound | inhibition (in words) [1] | other results
1 | O[C@H](CS)[C@H](O)CS (racemic) [dithiothreitol] | slightly inhibited or did not completely inhibit the enzymes | –
2 | CC(=O)C(C)=O [2,3-butanedione] | – | inhibition (residual activity) [2]: ≥ 40%
3 | CCOC(=O)OC(=O)OCC [diethyl pyrocarbonate] | slightly inhibited or did not completely inhibit the enzymes | –
4 | O=CC=O [glyoxal] | slightly inhibited or did not completely inhibit the enzymes | –
5 | O=C(O)c1cc(SSc2ccc([N+](=O)[O-])c(C(=O)O)c2)ccc1[N+](=O)[O-] [5,5'-dithiobis(2-nitrobenzoic acid)] | slightly inhibited or did not completely inhibit the enzymes | –
6 | H2O2 | – | inactivation (residual activity, in words) [3]: not be inactivated; inactivation (residual activity, in words) [4]: not be inactivated
7 | O=C(O)c1cc[c]([Hg][Cl])cc1 [p-Chloromercuribenzoic acid] | slightly inhibited or did not completely inhibit the enzymes | –
8 | O=C1CCC(=O)N1Br [N-bromosuccinimide] | – | percentage inhibition [1]: 30-40%
9 | O=C(O)CI [iodoacetic acid] | slightly inhibited or did not completely inhibit the enzymes | –
10 | CCN1C(=O)C=CC1=O [N-ethylmaleimide] | slightly inhibited or did not completely inhibit the enzymes | –
